Source: US20220079924A1, “GLUCOCORTICOID RECEPTOR MODULATORS” (ORIC Pharmaceuticals, Inc., priority 2018, published 2022)

Target: T1, GR (Homo sapiens, UniProt P04150)
T1 construct: expressed in transfected cells; host or cells: CHO-K1 (CHO-K1-GR-MMTV-Luc reporter cells)
T1 sequence (P04150 1-777): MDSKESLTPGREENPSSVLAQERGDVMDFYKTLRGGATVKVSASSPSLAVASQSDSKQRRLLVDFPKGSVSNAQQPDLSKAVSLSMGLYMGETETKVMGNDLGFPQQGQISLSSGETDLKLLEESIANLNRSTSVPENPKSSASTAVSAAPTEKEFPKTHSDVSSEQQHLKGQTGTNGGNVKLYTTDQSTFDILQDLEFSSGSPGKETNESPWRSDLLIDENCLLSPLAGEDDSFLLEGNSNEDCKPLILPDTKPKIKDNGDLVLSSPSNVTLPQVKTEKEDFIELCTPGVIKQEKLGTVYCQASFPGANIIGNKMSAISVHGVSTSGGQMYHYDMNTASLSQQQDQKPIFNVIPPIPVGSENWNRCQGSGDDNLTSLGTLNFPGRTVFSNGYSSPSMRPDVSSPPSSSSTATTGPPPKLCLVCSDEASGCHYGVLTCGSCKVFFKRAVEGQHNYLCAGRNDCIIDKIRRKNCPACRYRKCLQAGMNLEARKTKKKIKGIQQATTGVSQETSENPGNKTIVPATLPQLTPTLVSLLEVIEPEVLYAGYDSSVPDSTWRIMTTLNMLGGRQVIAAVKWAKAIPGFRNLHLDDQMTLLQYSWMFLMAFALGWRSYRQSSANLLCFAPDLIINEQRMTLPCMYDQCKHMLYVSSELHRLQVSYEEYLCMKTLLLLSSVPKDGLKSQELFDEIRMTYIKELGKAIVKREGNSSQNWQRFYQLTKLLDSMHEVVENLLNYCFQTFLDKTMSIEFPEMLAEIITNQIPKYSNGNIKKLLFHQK
Assay: In Vitro GR Luciferase Reporter Assay (antagonist assay)
Assay type: cell-based
Settings: CHO-K1-GR-MMTV-Luc reporter cells, 10 nM Dexamethasone, 18-24 hours
Experimental: Example A: In Vitro GR Luciferase Reporter Assay
Cell Line: CHO-K1-GR-MMTV-Luc reporter cells
Culture Media: DMEM (with phenol red)+10% FBS
Assay Media: DMEM (without phenol red)+10% CSS
Culture CHO-K1-GR-MMTV-Luc reporter cells in T175 flasks in Culture Media at conditions less than 90% confluence.
Using Bravo (Agilent) liquid handler:
200× DMSO 1:3 serial dilutions of control and test compounds in 96-well non-sterile V bottom plate in DMSO, 12 points for each compound were prepared.
Prepared 5× compound serial dilutions: Add 97.5 μL/well of Assay Media into 96-well non-sterile V bottom plate then added 2.5 ul of 200× concentration of compounds and mix well.
Seeded cells for Antagonist Assay: 5200 CHO-K1-GR-MMTV-Luc reporter cells were seeded in Greiner #781080 flat clear bottom 384-well white TC plate in 20 ul of Assay Media containing 12.5 nM Dexamethasone (final concentration=10 nM).
Added compounds: 5 μl of 5× compounds were added to appropriate wells and followed with a quick spin (1000 rpm, 10 sec) to bring media and cells to the bottom of plate. The plates were covered with SealMate film to avoid evaporation and placed in 37° C. incubator for approximately 18-24 hours.
Read plates: Equilibrate appropriate amount of Promega OneGlo luciferase reagent to room temperature. Remove the plates from incubator and add 25 uL of OneGlo reagent/well by Bravo and read the plates on Tecan Spark plate reader within 15 minutes.
The ability of the compounds disclosed herein to inhibit GR activity was quantified and the respective IC50 value was determined. Table 1 provides the cellular IC50 values of compounds disclosed herein.

Row | Compound | IC50 [µM]
1 | Cn1ccc(S(=O)(=O)N(C2CC2)[C@H]2CCC3=Cc4c(cnn4-c4ccc(F)cc4)C[C@]3(C(=O)c3cc(Cl)ccn3)C2)c1 [Example 67] | ≤ 0.1
2 | CC(C)N([C@H]1CCC2=Cc3c(cnn3-c3ccc(F)nc3)C[C@]2(C(=O)c2cc(F)ccn2)C1)S(=O)(=O)c1cnn(C)c1 [Example 68] | ≤ 0.1
3 | CC(C)N([C@H]1CCC2=Cc3c(cnn3-c3ccc(F)nc3)C[C@]2(C(=O)c2cc(C(F)(F)F)ccn2)C1)S(=O)(=O)c1cnn(C)c1 [Example 69] | ≤ 0.1
4 | Cn1cnc(S(=O)(=O)N(C2CC(F)(F)C2)[C@H]2CCC3=Cc4c(cnn4-c4ccc(F)nc4)C[C@]3(C(=O)c3cc(F)ccn3)C2)n1 [Example 70] | ≤ 0.1
5 | Cn1cc(S(=O)(=O)N(C2CC(F)(F)C2)[C@H]2CCC3=Cc4c(cnn4-c4ccc(F)nc4)C[C@]3(C(=O)c3cc(F)ccn3)C2)cn1 [Example 71] | ≤ 0.1
6 | Cn1cc(-n2ncc3c2C=C2CC[C@H](N(C4CC4)S(=O)(=O)c4ccc(F)cc4)C[C@@]2(C(=O)c2cc(C(F)(F)F)ccn2)C3)ccc1=O [Example 73] | > 1
7 | Cn1cc(S(=O)(=O)N(C2CC2)[C@H]2CCC3=Cc4c(cnn4-c4ccc(F)cn4)C[C@]3(C(=O)c3cc(C(F)(F)F)ccn3)C2)cn1 [Example 74] | ≤ 0.1
8 | Cn1cnc(S(=O)(=O)N(C2CC(F)(F)C2)[C@H]2CCC3=Cc4c(cnn4-c4ccc(F)nc4)C[C@]3(C(=O)c3cc(C(C)(C)C)ccn3)C2)n1 [Example 75] | ≤ 0.1
9 | Cn1cc(S(=O)(=O)N(C2CC(F)(F)C2)[C@H]2CCC3=Cc4c(cnn4-c4ccc(F)nc4)C[C@]3(C(=O)c3cc(C(C)(C)C)ccn3)C2)cn1 [Example 76] | ≤ 0.1
10 | CC([C@H]1CCC2=Cc3c(cnn3-c3ccc(F)cc3)C[C@]2(C(=O)c2cc(F)ccn2)C1)S(=O)(=O)c1ncn(C)n1 (some centres unmarked) [Example 77] | ≤ 0.1
11 | Cn1cnc(S(=O)(=O)N(CC(F)(F)F)[C@H]2CCC3=Cc4c(cnn4-c4ccc(F)nc4)C[C@]3(C(=O)c3cc(F)ccn3)C2)n1 [Example 78] | ≤ 0.1
12 | CC(C)N([C@H]1CCC2=Cc3c(cnn3-c3ccc(F)cc3)C[C@]2(C(=O)c2cc(F)ccn2)C1)S(=O)(=O)c1cnn(C)c1 [Example 79] | ≤ 0.1
13 | Cn1cc(S(=O)(=O)N(C2CC2)[C@H]2CCC3=Cc4c(cnn4-c4ccc(F)cc4)C[C@]3(C(=O)c3cc(F)ccn3)C2)cn1 [Example 80] | ≤ 0.1
14 | CC(C)N([C@H]1CCC2=Cc3c(cnn3-c3ccc(F)cc3)C[C@]2(C(=O)c2cc(F)ccn2)C1)S(=O)(=O)c1ncn(C)n1 [Example 81] | ≤ 0.1
15 | Cn1cnc(S(=O)(=O)N(CC(F)(F)F)[C@H]2CCC3=Cc4c(cnn4-c4ccc(F)cc4)C[C@]3(C(=O)c3cc(F)ccn3)C2)c1 [Example 82] | ≤ 0.1
16 | C[C@H]([C@H]1CCC2=Cc3c(cnn3-c3ccc(F)cc3)C[C@]2(C(=O)c2cc(F)ccn2)C1)S(=O)(=O)c1ncn(C)n1 [Example 83] | ≤ 0.1

Row | Compound | IC50 [µM]
17 | CC(C)N([C@H]1CCC2=Cc3c(cnn3-c3ccc(F)nc3)C[C@]2(C(=O)c2cc(F)ccn2)C1)S(=O)(=O)c1ccn(C)n1 [Example 84] | ≤ 0.1
18 | CC(C)N([C@H]1CCC2=Cc3c(cnn3-c3ccc(F)nc3)C[C@]2(C(=O)c2cc(Cl)ccn2)C1)S(=O)(=O)c1ccn(C)n1 [Example 85] | ≤ 0.1
19 | C[C@H]([C@H]1CCC2=Cc3c(cnn3-c3ccc(F)cc3)C[C@]2(C(=O)c2cc(Cl)ccn2)C1)S(=O)(=O)c1ncn(C)n1 [Example 86] | ≤ 0.1
20 | CC(C)N([C@H]1CCC2=Cc3c(cnn3-c3ccc(F)cc3)C[C@]2(C(=O)c2cc(F)ccn2)C1)S(=O)(=O)c1cn(C)cn1 [Example 87] | ≤ 0.1
21 | Cn1ccc(S(=O)(=O)C(C)(C)[C@H]2CCC3=Cc4c(cnn4-c4ccc(F)cc4)C[C@]3(C(=O)c3cc(C(F)(F)F)ccn3)C2)n1 [Example 88] | ≤ 0.1
22 | Cn1ccc(S(=O)(=O)N(C2CC2)[C@H]2CCC3=Cc4c(cnn4-c4ccc(F)nc4)C[C@]3(C(=O)c3cc(F)ccn3)C2)n1 [Example 89] | ≤ 0.1
23 | Cn1cnc(S(=O)(=O)[C@H]2CCC3=Cc4c(cnn4-c4ccc(F)cc4)C[C@]3(C(=O)c3cc(C(F)F)ccn3)C2)n1 [Example 90] | ≤ 0.1
24 | Cn1cnc(S(=O)(=O)[C@H]2CCC3=Cc4c(cnn4-c4ccc(F)cc4)C[C@]3(C(=O)c3ccc(F)cn3)C2)n1 [Example 91] | ≤ 0.1
25 | Cn1cnc(S(=O)(=O)[C@H]2CCC3=Cc4c(cnn4-c4ccc(F)cc4)C[C@]3(C(=O)c3ccc(C(F)F)cn3)C2)n1 [Example 92] | ≤ 0.1
26 | CCn1cnc(S(=O)(=O)[C@H]2CCC3=Cc4c(cnn4-c4ccc(F)cc4)C[C@]3(C(=O)c3ccc(C(F)(F)F)cn3)C2)n1 [Example 93] | ≤ 0.1
27 | CCN([C@H]1CCC2=Cc3c(cnn3-c3ccc(F)nc3)C[C@]2(C(=O)c2cc(F)ccn2)C1)S(=O)(=O)c1ncn(C)n1 [Example 94] | ≤ 0.1
28 | O=C(c1ccc(C2CC2)cn1)[C@]12Cc3cnn(-c4ccc(F)cc4)c3C=C1CC[C@H](S(=O)(=O)c1ncn(CC(F)(F)F)n1)C2 [Example 95] | ≤ 0.1
29 | Cn1cnc(S(=O)(=O)N(C2CC2)[C@H]2CCC3=Cc4c(cnn4-c4ccc(F)cc4)C[C@]3(C(=O)c3cc4c(cn3)OCCO4)C2)n1 [Example 96] | ≤ 0.1
30 | Cn1cnc(S(=O)(=O)[C@H]2CCC3=Cc4c(cnn4-c4ccc(F)cc4)C[C@]3(C(=O)c3cc4c(cn3)OCCO4)C2)n1 [Example 97] | ≤ 0.1
31 | Cn1cc(S(=O)(=O)N[C@H]2CCC3=Cc4c(cnn4-c4ccc(F)cc4)C[C@]3(C(=O)c3cc(F)ccn3)C2)cn1 [Example 98] | 0.1 to 1
32 | O=C(c1cc(F)ccn1)[C@]12Cc3cnn(-c4ccc(F)cc4)c3C=C1CC[C@H](N(C1CC(F)(F)C1)S(=O)(=O)c1cn[nH]c1)C2 [Example 99] | ≤ 0.1
